From patent US20240360151A1 (SANOFI, priority 2023, published 2024)

Experiments:
NLRP3 inflammasome = target: T1, NLRP3 inflammasome (Homo sapiens, UniProt Q96P20); experiment: IL-1β secretion assay (NLRP3 IC50) in LPS-primed, nigericin-activated THP-1 cells, HTRF; type: cell-based; settings: monocytic THP-1 cells; LPS 10 ng/mL 3 h priming, then compound + nigericin 10 μM 2 h; relative IC50, 10 concentrations, geometric mean
T1 construct: endogenous in cells; host or cells: THP-1 monocytic cells
How it was run: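 THP-1 cells primed with LPS 10 ng/mL for 3 h at 37° C., then compound (10-point 1:3 dilution, 0.1% DMSO) added with 10 μM nigericin for 2 h. Supernatant IL-1β measured by HTRF; relative IC50 from a 4-parameter logistic fit, reported as geometric mean.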

[1] = test system: NF-kB pathway (TNF-α secretion by THP-1 cells); experiment: TNF-α secretion assay in LPS-stimulated THP-1 cells, Lumit immunoassay; type: cell-based, human; settings: monocytic THP-1 cells, LPS 10 ng/mL, relative IC50, 10 concentrations, geometric mean
Experimental: Monocytic THP-1 cells were maintained in RPMI 1640 media (Gibco 21875)+10% FBS, (Gibco 10500)+1% penicillin/streptomycin (Gibco 15140-122). Cells were then plated at 40,000 cells per well in 384-well cell culture plates (Corning 3542) and maintained with RPMI1640 (Gibco 11835)+5% FBS, (Gibco 10500). Experimental compounds were prepared and added as described above. TNF-α secretion was triggered by the addition of 10 ng/mL LPS (invivoGen, tlrl-3pelps) and cells were incubated for 3 hours. TNF-α levels were monitored directly in the cells plate using an Lumit assay (Lumit TNFa-Human Immunoassay—Promega W6051) according to manufacturers' instructions.
Data were expressed as percentage of inhibition (I %) as compared to a maximum signal control containing no small molecule (I %=0%) according to the formula: 1%=(1−((Sample−Min))/((Max−Min)))×100, where: • Sample: Signal obtained in the presence of each compound tested, • Max: Maximum signal in the absence of compound added, • Min: Minimum or background signal obtained in the absence of activation signal.
Relative IC50 (IC50 rel) were obtained from a dose response curve with 10 concentrations. Final IC50 rels are expressed as the geometric mean.
Relative IC50 values were estimated with Biost@t-SPEED v2.4 internal software based on SAS system using the 4-parameter logistic model according to Ratkovsky and Reedy (D. A. Ratkovsky, T. J. Reedy, Choosing near-linear parameters in the four parameters logistic model radioligands and related assays. Biometrics, 42 (1986), 575-582): Y=A+C/((1+exp(−B*(log(X)−M)))), where: • A: Lower asymptote (BOTTOM), • A+C: Upper asymptote (TOP), • M: the logarithm of the concentration estimated at the inflexion point (the logarithm of the relative IC50), • B: Slope at the inflexion point of the curve.

T1 sequence (Q96P20 whole entry): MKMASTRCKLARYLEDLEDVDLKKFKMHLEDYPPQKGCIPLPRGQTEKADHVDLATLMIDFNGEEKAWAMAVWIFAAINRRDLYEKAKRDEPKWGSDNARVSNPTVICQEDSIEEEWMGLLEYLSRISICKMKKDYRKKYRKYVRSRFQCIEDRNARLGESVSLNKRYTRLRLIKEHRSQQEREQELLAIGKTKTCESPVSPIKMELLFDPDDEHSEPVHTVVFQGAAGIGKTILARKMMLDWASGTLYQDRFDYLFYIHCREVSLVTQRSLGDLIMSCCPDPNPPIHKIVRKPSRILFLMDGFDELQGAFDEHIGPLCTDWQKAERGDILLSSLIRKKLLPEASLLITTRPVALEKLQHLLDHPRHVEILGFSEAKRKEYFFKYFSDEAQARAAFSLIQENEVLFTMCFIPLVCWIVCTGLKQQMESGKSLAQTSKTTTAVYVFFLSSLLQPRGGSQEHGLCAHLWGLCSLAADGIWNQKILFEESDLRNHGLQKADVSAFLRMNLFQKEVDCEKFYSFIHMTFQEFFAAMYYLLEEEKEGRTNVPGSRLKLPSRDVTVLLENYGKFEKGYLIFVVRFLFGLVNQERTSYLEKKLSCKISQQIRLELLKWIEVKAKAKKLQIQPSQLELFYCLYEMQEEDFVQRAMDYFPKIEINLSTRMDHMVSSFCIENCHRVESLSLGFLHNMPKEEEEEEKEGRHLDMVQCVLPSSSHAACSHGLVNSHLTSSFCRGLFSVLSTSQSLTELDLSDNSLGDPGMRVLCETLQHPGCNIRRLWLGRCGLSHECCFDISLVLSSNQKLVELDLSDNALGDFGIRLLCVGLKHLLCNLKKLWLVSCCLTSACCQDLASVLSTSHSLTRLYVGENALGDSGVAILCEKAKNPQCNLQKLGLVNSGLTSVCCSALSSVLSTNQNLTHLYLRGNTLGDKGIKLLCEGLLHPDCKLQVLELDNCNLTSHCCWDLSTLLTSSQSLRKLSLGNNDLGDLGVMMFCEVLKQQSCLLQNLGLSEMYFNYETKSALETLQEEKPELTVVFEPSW

IC50 (NLRP3 inflammasome)	IC50 ([1]; Homo sapiens, THP-1, 3 h)	IC50 ([1]; 3 hours)	Compound
275 nM	> 10000 nM	–	Cc1cc(C(F)(F)F)cc(O)c1-c1ccc(N2CCOC(C(C)(C)O)C2)nn1 (single isomer, unassigned) [Example 53, 2-[6-[2-(1-hydroxy-1-methyl-ethyl)morpholin-4-yl]pyridazin-3-yl]-3-methyl-5-(trifluoromethyl)phenol]
203 nM	> 10000 nM	–	Cc1cc(C(F)(F)F)cc(O)c1-c1ccc(N2CCO[C@H](CN(C)C)C2)nn1 (single isomer, unassigned) [Example 59, 2-[6-[-2-[(dimethylamino)methyl]morpholin-4-yl]pyridazin-3-yl]-3-methyl-5-(trifluoromethyl)phenol]
386 nM	> 10000 nM	–	Cc1cc(C(F)(F)F)cc(O)c1-c1ccc(N2CCOC(CN(C)C)C2)nn1 (single isomer, unassigned) [Example 60, 2-[6-[-2-[(dimethylamino)methyl]morpholin-4-yl]pyridazin-3-yl]-3-methyl-5-(trifluoromethyl)phenol]
360 nM	> 10000 nM	–	CNC(=O)C[C@@H]1CN(c2ccc(-c3c(C)cc(C)cc3O)nn2)CCO1 (single isomer, unassigned) [Example 142]
221 nM	> 10000 nM	–	CNC(=O)C[C@H]1CN(c2ccc(-c3c(C)cc(C)cc3O)nn2)CCO1 (single isomer, unassigned) [Example 143]
242 nM	> 10000 nM	–	Cc1cc(C)c(-c2ccc(N3CCO[C@H](CC(N)=O)C3)nn2)c(O)c1 (single isomer, unassigned) [Example 146]
575 nM	> 10000 nM	–	Cc1cc(C)c(-c2ccc(N3CCO[C@@H](CC(N)=O)C3)nn2)c(O)c1 (single isomer, unassigned) [Example 147]
164 nM	> 10000 nM	–	Cc1cc(C)c(-c2ccc(N3CCO[C@H](CCO)C3)nn2)c(O)c1 (single isomer, unassigned) [Example 233]
355 nM	> 10000 nM	–	Cc1cc(C)c(-c2ccc(N3CCO[C@@H](CCO)C3)nn2)c(O)c1 (single isomer, unassigned) [Example 234]
249 nM	> 10000 nM	–	CCN1CC[C@@H]2OCCN(c3ccc(-c4c(C)cc(C(F)(F)F)cc4O)nn3)[C@@H]2C1 (single isomer, unassigned) [Example 255]
1 nM	> 10000 nM	–	CCN1CC[C@H]2OCCN(c3ccc(-c4c(C)cc(C(F)(F)F)cc4O)nn3)[C@H]2C1 (single isomer, unassigned) [Example 256]
180 nM	> 10000 nM	–	Cc1cc(C(F)(F)F)cc(O)c1-c1ccc(N2CCO[C@@H]3CCN(C)C[C@@H]32)nn1 (single isomer, unassigned) [Example 260]
1 nM	> 10000 nM	–	Cc1cc(C(F)(F)F)cc(O)c1-c1ccc(N2CCO[C@H]3CCN(C)C[C@H]32)nn1 (single isomer, unassigned) [Example 261]
180 nM	> 10000 nM	–	CC(=O)N1CC[C@@H]2OCCN(c3ccc(-c4c(C)cc(C(F)(F)F)cc4O)nn3)[C@@H]2C1 (single isomer, unassigned) [Example 263]
51 nM	–	2040 nM	CC(=O)NCCC1CN(c2ccc(-c3c(C)cc(C(F)(F)F)cc3O)nn2)CCO1 (single isomer, unassigned) [Example 277, N-[2-[4-[6-[2-hydroxy-6-methyl-4-(trifluoromethyl)phenyl]pyridazin-3-yl]morpholin-2-yl]ethyl]acetamide]
50 nM	–	> 10000 nM	CC(=O)NCCC1CN(c2ccc(-c3c(C)cc(C(F)(F)F)cc3O)nn2)CCO1 (single isomer, unassigned) [Example 278, N-[2-[4-[6-[2-hydroxy-6-methyl-4-(trifluoromethyl)phenyl]pyridazin-3-yl]morpholin-2-yl]ethyl]acetamide]
87 nM	> 10000 nM	–	Cc1cc(C(F)(F)F)cc(O)c1-c1ccc(N2CCO[C@H](CF)C2)nn1 (single isomer, unassigned) [Example 284]

The remaining lines, values behind:

Compound	IC50 (NLRP3 inflammasome)	IC50 ([1]; Homo sapiens, THP-1, 3 h)	IC50 ([1]; 3 hours)
Cc1cc(C)c(-c2ccc(N3CCO[C@@H]4CCN(C5CCC5)C[C@@H]43)nn2)c(O)c1 (single isomer, unassigned) [Example 11]	3 nM	> 10000 nM	–
Cc1cc(C(F)(F)F)cc(O)c1-c1ccc(N2CCO[C@H]3CCN(C4CCC4)C[C@H]32)nn1 (single isomer, unassigned) [Example 12]	171 nM	> 10000 nM	–
Cc1cc(C(F)(F)F)cc(O)c1-c1ccc(N2CCO[C@@H]3CCN(C4CCC4)C[C@@H]32)nn1 (single isomer, unassigned) [Example 13]	2 nM	> 10000 nM	–
Cc1cc(C)c(-c2ccc(N3C[C@H](CO)CC3=O)nn2)c(O)c1 (single isomer, unassigned) [Example 137]	411 nM	> 10000 nM	–
Cc1cc(C)c(-c2ccc(N3C[C@@H](CO)CC3=O)nn2)c(O)c1 (single isomer, unassigned) [Example 138]	441 nM	> 10000 nM	–
Cc1cc(C)c(-c2ccc(N3CC[C@H](CO)C3=O)nn2)c(O)c1 (single isomer, unassigned) [Example 139]	235 nM	> 10000 nM	–
Cc1cc(C)c(-c2ccc(N3CC[C@@H](CO)C3=O)nn2)c(O)c1 (single isomer, unassigned) [Example 140]	210 nM	> 10000 nM	–
CCC(=O)C1CN(c2ccc(-c3c(C)cc(C)cc3O)nn2)CCO1 (single isomer, unassigned) [Example 157]	314 nM	> 10000 nM	–
Cc1cc(C)c(-c2ccc(N3CCOC([C@@H](C)O)C3)nn2)c(O)c1 (single isomer, unassigned) [Example 180]	473 nM	> 10000 nM	–
Oc1cc(Cl)cc(Cl)c1-c1ccc(N2CCO[C@@H](CF)C2)nn1 (single isomer, unassigned) [Example 237]	24 nM	4120 nM	–
Oc1cc(Cl)cc(Cl)c1-c1ccc(N2CCO[C@H](CF)C2)nn1 (single isomer, unassigned) [Example 238]	47 nM	4290 nM	–
Cc1cc(C(F)(F)F)cc(O)c1-c1ccc(N2CCO[C@H]3CCNC[C@H]32)nn1 (single isomer, unassigned) [Example 251]	21 nM	> 10000 nM	–
Cc1cc(C(F)(F)F)cc(O)c1-c1ccc(N2CCO[C@@H]3CCNC[C@@H]32)nn1 (single isomer, unassigned) [Example 252]	461 nM	> 10000 nM	–
CC(=O)N1CC[C@H]2OCCN(c3ccc(-c4c(C)cc(C(F)(F)F)cc4O)nn3)[C@H]2C1 (single isomer, unassigned) [Example 262]	17 nM	> 10000 nM	–
Cc1cc(C(F)(F)F)cc(O)c1-c1ccc(N2CC[C@H]3CN(C)C[C@H]32)nn1 (single isomer, unassigned) [Example 270]	493 nM	> 10000 nM	–
Cc1cc(C(F)(F)F)cc(O)c1-c1ccc(N2CCC(CO)CC2=O)nn1 (single isomer, unassigned) [Example 293]	84 nM	> 10000 nM	–
CCN1CC[C@@H]2OCCN(c3ccc(-c4c(C)cc(Cl)cc4O)nn3)[C@@H]2C1 (single isomer, unassigned) [Example 312]	56 nM	> 10000 nM	–
